Measured values reported in patent publication US20080039410A1, “Inositol 1,4,5-Trisphosphate Receptor Mutants and Uses Thereof” (priority 2004, published 2008).
Entries after “also recorded” stand apart in the source; their conditions may differ.

Tested on: S2+ InsP3R-1
Assay: Potentiation of CCh-induced Ca2+ release after PKG activation (8-Br cGMP), S2+ InsP3R-1 constructs in DT-40 3ko cells
Assay type: cell-based, rat
Conditions: for effect of 8-Br cGMP treatment on CCh-induced Ca^2+ release: 10 μM 8-Br cGMP, threshold CCh; for Ca^2+ release after PKG activation: S2 + InsP3R-1 constructs, Table 2
Experimental: Transfected DT-40 3ko cells were washed once in a HEPES-buffered physiological saline solution (HEPES-PSS) containing (in mM) 5.5 glucose, 137 NaCl, 0.56 MgCl2, 4.7 KCl, 1 Na2HPO4, 10 HEPES (pH 7.4), 1.2 CaCl2 and 1% w/v Bovine Serum Albumin. Cells were then resuspended in BSA HEPES-PSS with 1 μM Fura-2 (AM), placed on a 15 mm glass coverslip in a low volume perfusion chamber (Warner Instruments) and allowed to adhere for 30 minutes at room temperature. Cells were perfused continually for 10 minutes with HEPES-PSS before experimentation to allow Fura-2 de-esterification. A field of cells for each experiment was chosen that contained a wide range of transfection efficiency based upon the intensity of red fluorescence emitted when excited at 560 nm. [Ca^2+]i imaging was performed essentially as previously described using an inverted epifluorescence Nikon microscope with a 40× oil immersion objective lens (numerical aperture, 1.3). Cells were excited alternately with light at 340 and 380 nm (±10 mn bandpass filters, Chroma) using a monochrometer (TILL Photonics). Fluorescence images were captured and digitized with a digital camera driven by TILL Photonics software. Images were captured every 2 seconds with an exposure of 35 ms and no binning. 340/380 ratio images were calculated online and stored immediately to hard disk.
The effects of treatment were determined by normalizing the peak change in fluorescence ratio by stimulation following forskolin or 8-Br cGMP exposure to that of stimulation in control HEPES-PSS. Thus, pooled data represents a normalized fold increase over control for the treated trial. Two tailed heteroscedastic t-tests with P values<0.05 were considered to have statistical significance.
Similar experiments were performed to assess the effects on Ca^2+ release of phosphorylating InsP3R-1 with PKG. Cells transfected with S2^+ InsP3R-1 together with M3 receptor and HcRed were stimulated with low, threshold concentrations of CCh (25-50 nM) followed by a 10 min treatment with 10 μM 8-Br cGMP, a specific activator of PKG [48]. […] In a similar fashion to PKA activation, this was manifested as an increase in the CCh-induced initial peak (FIG. 4A and pooled data FIG. 4E).
The effects of treatment were determined by normalizing the peak change in fluorescence ratio by stimulation following forskolin or 8-Br-cGMP exposure to that of stimulation in control HEPES-PSS. Thus, pooled data represent a normalized fold increase over control for the treated trial. In all cases where statistical significance is indicated, two-tailed heteroscedastic t tests were performed. P values<0.05 were considered to indicate statistical significance and are denoted by an asterisk in the figures.
Despite these differences, experiments were performed to define further the phosphorylation sites important for regulation of Ca^2+ release by PKG. […] In contrast, in cells expressing S2+SE no effect on CCh-induced Ca^2+ release following activation of PKG was observed (FIG. 23C and pooled data in FIG. 23D).

Row | Substance | effect of 8-Br cGMP treatment on CCh-induced Ca^2+ release | Ca^2+ release after PKG activation
1 | S2+ES: S2+ InsP3R-1, long splice variant with S1589E | markedly potentiated | enhanced
2 | S2+SE: phosphomimetic S2+ InsP3R-1, long splice variant of S1755E | no effect; also recorded: no potentiation | no change
